Values of other authors in patent US8178516B2, “Compositions and method for treatment of chronic inflammatory diseases” (Sylvan Labs, LLC, priority 1992, dated 2012).

Experiments:
[1] = tested on: myocardial glutathione; details: subsequent to experimental ischemia and reperfusion
[2] = tested on: plasma cysteine, plasma glutathione and red blood cell glutathione; details: in vivo

CC(=O)N[C@@H](CS)C(=O)O [N-acetylcysteine]
increase in myocardial glutathione [1]: 100 fold | levels of plasma cysteine, plasma glutathione and red blood cell glutathione [2]: increase
